Structures can show the parent of a compound that is named as a salt.
Legend:
[1] = system: OA-induced bronchoconstriction in the Guinea Pig; test: In vivo inhibition of ovalbumin-induced bronchoconstriction - Anti-allergy assay
Description: (2) In vivo inhibition of ovalbumin-induced bronchoconstriction-Anti-allergy assay.
Adult, male Hartley guinea pigs (300-350 g, fasted) actively sensitized to ovalbumin are utilized in this assay.
Ovalbumin (OA) causes bronchoconstriction when administered to actively-sensitized guinea pigs. The observed bronchoconstriction is comprised of at least two distinct components:
(a) a cyclooxygenase-dependent, rapidly occurring bronchoconstriction mediated by thromboxane A2 and possibly other mediators and
(b) a 5-lipoxygenase dependent slow developing component, dependent upon the de novo generation of LTC4 and LTD4.
All test animals are pretreated with aspirin and pyrilamine to block the occurrence of the rapidly occurring component (a). Compounds which block the generation of LTC4 and LTD4 (5-lipoxygenase inhibitors) or antagonize the activity of LTC4 /LTD4 (leukotriene inhibitors) modulate the severity of the remaining component of this well-characterized anaphylactic response.
Test compounds are administered at screening doses of 50 mg/kg, i.v., or 100 mg/kg, i.g. A compound is rated active in this test if it causes a significant reduction (i.e., p 0.05, student's t-test) in intratracheal insufflation pressure induced by an i.v. injection of ovalbumin (3 mg/ml, i.v.), aspirin (5 mg/kg, i.v.) and propanolol (6 mg/kg i.p.). Treated animals are statistically compared to concurrent vehicle treated controls. Compounds rated active in inhibiting the production of the LTC4 /LTD4 allergic mediators through inhibition of 5-lipoxygenase according to this test are believed to play a significant role in bronchopulmonary allergic conditions, e.g., asthma.

5-lipoxygenase = target: T1, 5-lipoxygenase (Rattus norvegicus, UniProt P12527); test: Inhibition of 5-lipoxygenase, in vitro; format: biochemical; settings: 100,000×g supernatant of RBL-1 homogenate, 14C-arachidonic acid, 5-HETE measured
T1 construct: supernatant fraction of Rat Basophilic Leukemia Cell Homogenate (RBL-1) serves as a 5-lipoxygenase enzyme source; endogenous in cells; host or cells: RBL-1 (rat basophilic leukemia) cells, 100,000×g supernatant of homogenate
T1 sequence (P12527 1-673): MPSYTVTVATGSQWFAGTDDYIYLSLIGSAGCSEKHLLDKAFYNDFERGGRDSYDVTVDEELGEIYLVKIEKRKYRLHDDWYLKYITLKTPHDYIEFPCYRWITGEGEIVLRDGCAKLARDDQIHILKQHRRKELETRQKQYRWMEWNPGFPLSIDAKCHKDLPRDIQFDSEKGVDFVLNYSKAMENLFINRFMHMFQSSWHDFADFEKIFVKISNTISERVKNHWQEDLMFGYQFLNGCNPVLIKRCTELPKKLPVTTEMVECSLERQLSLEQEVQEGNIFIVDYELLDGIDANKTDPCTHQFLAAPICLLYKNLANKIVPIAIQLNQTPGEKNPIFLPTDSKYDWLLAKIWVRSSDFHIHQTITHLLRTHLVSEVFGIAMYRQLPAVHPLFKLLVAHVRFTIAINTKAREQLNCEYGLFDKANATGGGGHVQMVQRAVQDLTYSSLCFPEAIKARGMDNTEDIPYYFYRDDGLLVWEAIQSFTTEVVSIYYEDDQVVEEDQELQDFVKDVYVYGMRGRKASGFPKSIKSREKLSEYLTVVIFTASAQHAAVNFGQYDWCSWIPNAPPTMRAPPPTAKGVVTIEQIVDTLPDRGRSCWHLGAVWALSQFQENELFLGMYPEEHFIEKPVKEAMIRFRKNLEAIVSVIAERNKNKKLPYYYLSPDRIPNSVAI
Description: The compounds of the invention are evaluated with respect to 5-lipoxygenaseinhibition according to the following assay procedures.
(1) Inhibition of 5-lipoxygenase, in vitro: anti-inflammatory, anti-allergyactivities.
The 100,000×g supernatant fraction of Rat Basophilic Leukemia Cell Homogenate (RBL-1) serves as a 5-lipoxygenase enzyme source. The enzyme is incubated with [(1-^14 C)-arachidonic acid and Ca++ in the presence and absence of test compound. The product of 5-lipoxygenase, 5-hydroxyeicosatetraenoic acid (5-HETE), is separated by thin-layer chromatography and measured by radioactivity. A compound inhibiting 5-HETE synthesis by 30% or more is considered active at that concentration.

[2] = more potent than histamine; cited from earlier work
[3] = i.g. @ 3 hr., vehicle 2 (peanut oil)
[4] = i.g. @ 3 hr., vehicle 1 (20% DMSO in polyethylene glycol)

## CC(C)(C)c1cc(SCCSCC(=O)O)cc(C(C)(C)C)c1O [Example 3, [[2-[[3,5-bis(1,1-dimethylethyl)-4-hydroxyphenyl]thio]ethyl]thio]acetic acid, monosodium salt]
[1]; i.g. @ 3 hr., vehicle 1 (20% DMSO in polyethylene glycol), monosodium salt
  Antagonism of OA-induced bronchoconstriction in the Guinea Pig (min. effective dose): 100 mg/kg

## CC(C)(C)c1cc(SCCSCC(=O)O)cc(C(C)(C)C)c1O [Example 4, [[2-[[3,5-bis(1,1-dimethylethyl)-4-hydroxyphenyl]thio]ethyl]thio]acetic acid]
5-lipoxygenase
  IC50: 1400 nM
[1]; [3]
  Antagonism of OA-induced bronchoconstriction in the Guinea Pig (min. effective dose): 100 mg/kg

## CC(C)(C)c1cc(SCCSCC(=O)O)cc(C(C)(C)C)c1O [Example 6, [[2-[[3,5-bis(1,1-dimethylethyl)-4-hydroxyphenyl]thio]ethyl]thio]acetic acid, 2,2',2"nitrilotris[ethanol] salt]
5-lipoxygenase
  IC50: 1800 nM
[1]; [4]
  Antagonism of OA-induced bronchoconstriction in the Guinea Pig (min. effective dose): 50 mg/kg

## COC(=O)CSCCSc1cc(C(C)(C)C)c(O)c(C(C)(C)C)c1 [Example 8, methyl[[2-[[3,5-bis(1,1-dimethylethyl)-4-hydroxyphenyl]thio]ethyl]thio]acetate]
[1]; [4]
  Antagonism of OA-induced bronchoconstriction in the Guinea Pig (min. effective dose): 100 mg/kg

## CCOC(=O)C[S+]([O-])CCSc1cc(C(C)(C)C)c(O)c(C(C)(C)C)c1 (centres unmarked) [Example 12, ethyl[[2-[[3,5-bis(1,1-dimethylethyl)-4-hydroxyphenyl]thio]ethyl]sulfinyl]acetate]
5-lipoxygenase
  IC50: 330 nM

## CC(C)(C)c1cc(SCCSCCC(=O)O)cc(C(C)(C)C)c1O [Example 13, 3-[[2-[[3,5-bis(1,1-dimethylethyl)-4-hydroxyphenyl]thio]ethyl]thio]propanoic acid]
5-lipoxygenase
  IC50: 1000 nM
[1]; i.g. @ 5 hr., vehicle 2 (peanut oil)
  Antagonism of OA-induced bronchoconstriction in the Guinea Pig (min. effective dose): 100 mg/kg

## COC(=O)CCCSCCSc1cc(C(C)(C)C)c(O)c(C(C)(C)C)c1 [Example 15, methyl 4-[[2-[[3,5-bis(1,1-dimethylethyl)-4-hydroxyphenyl]thio]ethyl]thio]butanoate]
5-lipoxygenase
  IC50: 120 nM

## CCOC(=O)CS(=O)(=O)CCSc1cc(C(C)(C)C)c(O)c(C(C)(C)C)c1 [Example 17, ethyl[[2-[[3,5-bis(1,1-dimethylethyl)-4-hydroxyphenyl]thio]ethyl]sulfonyl]acetate]
5-lipoxygenase
  IC50: 300 nM

## COC(=O)CSC(C)C(C)Sc1cc(C(C)(C)C)c(O)c(C(C)(C)C)c1 (centres unmarked) [Example 19, methyl[[2-[[3,5-bis(1,1-dimethylethyl)-4-hydroxyphenyl]thio]-1-methylpropyl]thio]acetate]
5-lipoxygenase
  IC50: 240 nM
[1]; [3]
  Antagonism of OA-induced bronchoconstriction in the Guinea Pig (min. effective dose): 32 mg/kg

## CC(SCC(=O)O)C(C)Sc1cc(C(C)(C)C)c(O)c(C(C)(C)C)c1 (centres unmarked) [Example 20, [[2-[[3,5-bis(1,1-dimethylethyl)-4-hydroxyphenyl]thio]-1-methylpropyl]thio]acetic acid]
5-lipoxygenase
  IC50: 820 nM
[1]; [3]
  Antagonism of OA-induced bronchoconstriction in the Guinea Pig (min. effective dose): 32 mg/kg

## CC(C)(C)c1cc(SCCOCC(=O)O)cc(C(C)(C)C)c1O [Example 31, [2-[[3,5-bis(1,1-dimethylethyl)-4-hydroxyphenyl]thio]ethoxy]acetic acid]
5-lipoxygenase
  IC50: 7300 nM

## Cc1cc(SCCSCC(=O)O)ccc1O [Example 34, [[2-[(4-hydroxy-3-methylphenyl)thio]ethyl]thio]acetic acid, reference compound]
5-lipoxygenase
  IC50: ~100000 nM
[1]; [3]
  Antagonism of OA-induced bronchoconstriction in the Guinea Pig (min. effective dose): 100 mg/kg

## O=C(O)CSCCSc1ccc(O)cc1 [Example 37, [[2-[(4-hydroxyphenyl)thio]ethyl]thio]acetic acid, reference compound]
5-lipoxygenase
  IC50: 55000 nM
[1]; [3]
  Antagonism of OA-induced bronchoconstriction in the Guinea Pig (min. effective dose): 100 mg/kg

## COC(=O)CSCC(O)CSc1cc(C(C)(C)C)c(O)c(C(C)(C)C)c1 (centres unmarked) [Example 42, methyl[[3-[[3,5-bis(1,1-dimethylethyl)-4-hydroxyphenyl]thio]-2-hydroxypropyl]thio]acetate]
5-lipoxygenase
  IC50: 310 nM
[1]; i.g. @ 2 hr., vehicle 1 (20% DMSO in polyethylene glycol)
  Antagonism of OA-induced bronchoconstriction in the Guinea Pig (min. effective dose): 50 mg/kg

## CCCCC/C=C\C\C=C/C=C/C=C/[C@@H](SC[C@H](NC(=O)CC[C@H](N)C(=O)O)C(=O)NCC(=O)O)[C@@H](O)CCCC(=O)O [LTC4]
[2]
  potency relative to histamine in causing long lasting bronchoconstricting effects: at least 100 times

Source: patent US4755524A, “Novel phenolic thioethers as inhibitors of 5-lipoxygenase” (G. D. Searle & Co., priority 1987, dated 1988)
